Assay results reported in a melting point compilation (Tetko et al.; mined from patent text by program, amines drawn as free bases though some values may be those of a salt).

Compound | melting point [°C]
CC12CCC(C(=NO)C1=O)C(C)(C)O2 (centres undefined) | 158 to 159
CCSc1nn2c(-c3ccc(OC)cc3)nnc2c2ccccc12 | 176 to 178
CCC[C@@H]1COC(=O)N1c1nc(-c2ccc(Br)cc2)cs1 | 114 to 116
CC(C)CC(CC1CCCCC1)Cn1ccnc1 (centres undefined) | 119 to 120
COC1(c2ccc(F)cc2)CCC(=O)CC1 | 57 to 59
COc1ccc(-c2[nH]nc3c2C(=O)c2c(NC(=O)Cc4ccc(NC(=O)CN)cc4)cccc2-3)cc1 | 228
Brc1ccn2nc(Br)nc2c1 | 183 to 184
COc1cc2c(cc1OC)S(=O)CCC(C(=O)N1CCN(C(=O)c3cc(OC)c(OC)c(OC)c3)CC1)=C2 (centres undefined) | 138
OCc1cn(-c2ccc(F)c(Br)c2)cn1 | 151 to 152
CCc1nn2c(N)c3c(nc2c1S(=O)(=O)c1ccccc1)CCC3 | > 230
CCCCCCCCCCc1ccc(C(=O)NOCc2ccccc2)cc1 | 82 to 83
FC(F)(F)c1cccc(N2CCC(N=Cc3ccccn3)=N2)c1 | 156
CC(C)NC(=S)NS(=O)(=O)c1ccc(S(C)(=O)=O)cc1N | 151 to 153
O=C(Cc1cccs1)NCc1cccc2c1C(=O)N(C1CCC(=O)NC1=O)C2=O (centres undefined) | 171 to 173
Cc1cc2c(cc1C(=O)c1ccc(C(O)=NOCc3ccccc3)cc1)C(C)(C)CCC2(C)C | 169 to 172
Nc1cccc(Cn2c(-c3ccc(-c4cncnc4)cc3)ccc2-c2ccccc2Cl)n1 | 163 to 164
COc1ncc(Cc2n[nH]c(=O)c3ccccc23)cc1Br | 227 to 228
COC1(N2CCCC2)C=CC=C(c2cnc3[nH]cc(C(=O)C(C)(C)C)c3n2)C1 (centres undefined) | 245 to 256
COc1ccc2c(c1)C(=O)N(CCCNCCCN1C(=O)c3cc(OC)ccc3C(C)(C)C1=O)C(=O)C2(C)C | 151 to 152
O=C(O)c1ccc(S(=O)(=O)Oc2ccc(-c3ccc(-c4c(C(=O)c5ccccc5)oc5ccccc45)cc3)cc2C2CCCC2)cc1O | 105 to 108
CC(=O)OCC(=O)c1ccc(Cl)c(Cl)c1 | 68 to 70
Cn1ncnc1COc1nn2c(-c3cc(CF)on3)nnc2c2ccccc12 | 250 to 252
CC(C)C/C(=C/CCNC(=O)OCc1ccccc1)C(=O)O | 70 to 71
Cc1ccc(C(=O)c2ccc(Cl)cc2)c(Cl)c1 | 58 to 60.5
Cn1c2c(c3c(Cl)cccc31)CCOC2(C)CC(=O)O (centres undefined) | 105 to 110

Compound | melting point [°C]
Cc1cccc2c1C(=O)c1c-2csc1N | 196 to 198
O=S1(=O)N=CN(C2CCC2)c2cc(Cl)c(Cl)cc21 | 238 to 240
CCCCc1nn(-c2ccc(C(F)(F)F)cn2)cc1CCCOc1nn(C)cc1CC(=O)O | 125 to 126
Cc1cc(CCCCOCCCCCCNCc2c(CO)ccc(O)c2CO)cc(C)c1N | 66 to 68
CC(=O)OCC1Cc2cc(S(=O)(=O)N(C)C)c(Cl)c(Cl)c2O1 (centres undefined) | 159 to 160
CN1C(=O)C(C(=O)NCCCCCC(=O)O)S(=O)(=O)c2ccccc21 (centres undefined) | 132 to 134
N#Cc1ccc(N)cc1N | 102 to 103
O=C(O)CCCc1cc2nc(Cl)ccc2n1S(=O)(=O)c1ccc2c(c1)OCO2 | 160
C[Si](C)(C)c1cn(Cc2ccc(C#N)cc2)nn1 | 83
O=C(CCc1cccc2c1NC(=O)CO2)CCc1cccc2c1NC(=O)CO2 | 183 to 185
CN(C)c1ccc(NC(=O)N(C[C@H]2CCC[C@H](CN(C(=O)Nc3ccc(N(C)C)cc3)C3CCCCCC3)C2)C2CCCCCC2)cc1 (relative stereo) | 109 to 114
COc1ccc(C=O)c(Br)c1O | 80 to 81.5
CCOC(=O)N(C)N(C)C(=S)Nc1cc(Cl)cc(Cl)c1 | 147 to 149
N[C@@H](CC(=O)c1ccc2oc3ccccc3c2c1)C(=O)O | 182 to 187
CCc1cn([C@H]2C[C@H](OC(C)=O)[C@@H](/C=C/C(=O)Cc3c(Cl)cccc3Cl)O2)c(=O)[nH]c1=O | 165
COC(=O)/C=C/c1nc(C(=O)OC)ccc1OC | 123 to 126
CN1CCC(C#N)(c2ccc(Cl)cc2F)CC1 | 85 to 87
CCOC(=O)C(C#N)=C(NCc1ccccc1)NCC1CN(Cc2ccc(F)cc2)CCO1 (centres undefined) | 107 to 108
OC(Cc1ccc(C(F)(F)F)cc1)(Cn1ccnc1)Cn1cncn1 (centres undefined) | 159 to 161
CC(=O)OC1CSC(Oc2ccc(-c3ccncc3)nc2F)C(OC(C)=O)C1OC(C)=O (centres undefined) | 164
O=C1N(Cn2nc3ccccc3n2)c2ccccc2C12COc1cc3c(cc12)CCO3 (centres undefined) | 102 to 105
CSc1ccc(CC(NC(=O)OCc2ccccc2)C(O)C#N)cc1 (centres undefined) | 123 to 125
CCOC(=O)c1ccc2c(c1)N=C(C)c1ccc(OC)cc1O2 | 117 to 118
C#CCN(C(=O)c1cnccc1C(F)(F)F)S(=O)(=O)c1cccc(C)c1 | 111 to 114
CC(C)(C)OC(=O)NCc1ccc2cc(C(N)=O)[nH]c2c1 | 209 to 210

Compound | melting point [°C]
Brc1ccc(-c2cnc(COCc3cc4ccccc4o3)o2)cc1 | 80 to 82
COc1c(C(=O)O)oc2c3ccccc3n(-c3ccccc3)c12 | 154 to 155
CNC(=O)NC(=O)C(CC1CCC(O)C1)c1ccc(Cl)c(Cl)c1 (centres undefined) | 82 to 84
CC1(C)CCC(C)(C)c2cc(CCCn3cccn3)c(/C=C/c3ccc(C(=O)O)cc3)cc21 | 182
CC(C)c1cccc(C(C)C)c1NC(=O)Cc1ccccc1NCC(c1ccccc1)c1ccccc1 | 174 to 176
O=S(=O)(c1cccc(-c2cccc(-c3nc(-c4ccc(C(F)(F)F)cc4)cc(C(F)(F)F)n3)c2)c1)N(CCO)CCO | 112
CCOC(=O)C(=NOCCBr)c1csc(NC=O)n1 | 95 to 98
COC1C2=C3C(=CN1OC)OCCC3CC(C(C)=O)C2 (centres undefined) | 100 to 102
O=c1c2c(Cc3cccc(C(F)(F)F)c3)n[nH]c2c2cccnc2n1-c1cccc(C(F)(F)F)c1 | 206 to 208
Cc1cc(NC(=O)Cc2ccccc2C(F)(F)F)cc(C)c1S(=O)(=O)C[N+](=O)[O-] | 203 to 204
COc1ccc(C(=O)Nc2ccc3ccc(OC4CCN(C)CC4)nc3n2)cc1 | 200
OCc1c(F)ccc(-c2ccc3nc(-c4ccc(Cl)cc4)cn3c2)c1F | 214 to 216
CC(=O)OCc1cccc2c1nc(-c1c(F)cccc1F)n2Cc1c(F)cccc1F | 126 to 127
CC(C)Nc1nc2c(Br)c(Cl)c(Cl)cc2n1[C@H]1O[C@@H](CO)[C@H](O)[C@@H]1O | 221 to 222
CC(C)(C)[Si](C)(C)O[C@@H]1CO[C@H](c2cccnc2)[C@@H]1CCC(=O)O | 93 to 94
CN(C1=CC(=O)C(=O)c2ccccc21)C1CCCCC1 | 168 to 170
CCCn1c(CCOC)nc2c(N)nc3cc(OC4CCN(C(=O)OC(C)(C)C)CC4)ccc3c21 | 173 to 175
O=[N+]([O-])c1cc(Cl)cc(O)c1O | 108 to 111
COC(=O)c1ccc(NC=O)nc1 | 218 to 220
CN(C)C(=O)c1cc(OCc2ccccc2)c2nc(C(F)(F)F)n(C)c2c1 | 144 to 146
Cc1cc(C2=CCN(S(=O)(=O)C3(C(=O)O)CCOCC3)CC2)ccc1-c1ccccc1 | 211 to 213
CCOP(=O)(CCc1ccnc(-c2nc(=O)c3ccccc3s2)c1)OCC | 102 to 103
COc1cc(C(C)C)c2c(c1)S(=O)(=O)N(COc1cc(C#N)nn1-c1ccc(Cl)cc1Cl)C2=O | 183 to 184
O=[N+]([O-])c1ccc2oc(-c3sccc3CN3CCOCC3)nc2c1 | 143 to 145
CC(C)(C)OC(=O)NCc1ccc(-n2c(-c3cccnc3N)nc3ccc(-c4cn[nH]c4)nc32)cc1 | 243 to 244

Compound | melting point [°C]
CCOc1ccc(C2=NN(Cc3ccccc3)C(=O)[C@H]3CCCC[C@@H]23)cc1OCC (relative stereo) | 91 to 92
COC1CCc2c(Nc3ccc(C#N)cc3)ncnc21 (centres undefined) | 167 to 169
CCOC(=O)CNC(=O)Oc1c(C)n(CC)ccc1=O | 102 to 103
O=C(CCCl)Nc1ccc2c(c1NC(=O)CCCl)C(=O)c1ccccc1C2=O | 179 to 180
O=C(Nc1nc(C(F)(F)F)c(Br)s1)c1ccc(Cl)c(Cl)c1 | 191 to 192
CCOC(=O)C(=CNc1ccn(Cc2ccco2)n1)C(=O)c1ccccc1 | 75 to 77
O=C(O)COC1(Cl)CC(c2ccccc2)=Nc2ccccc21 (centres undefined) | 230
COc1ccc(C(c2ccc(OC)cc2)c2cnccc2C(=O)O)cc1 | 122 to 124
O=C(Cc1ccccc1C(=O)O)Nc1cccc(/C=C/c2nc(C3CCCC3)cs2)c1 | 209 to 210
NC(=O)c1ccc2[nH]c(=O)oc2c1 | 296
COCCCNC(=O)c1cc2c(nc(C)n2C)c2c1CCC1(Cc3ccccc3C1)N2 | 188 to 189
CCCCOc1ccc2c(=O)n(Cc3ccccc3)[nH]c2c1 | 148 to 149
O=S1(=O)NCN(C2CC2)c2c1ccc(Br)c2Cl | 128 to 131
CN(C)c1ccc(NC(=O)N(C[C@@H]2CCC[C@H](CN(C(=O)Nc3ccc(N(C)C)cc3)C3CCCCCCC3)C2)C2CCCCCCC2)cc1 | 147 to 149
Nc1nc2ccccc2c2c1nc(CCCOc1ccccc1)n2CCCNC(=O)c1ccccc1 | 192 to 194
C=CCNc1nc(NC(=O)NCCCC)c2scc(C)c2n1 | 141
CCCCCN1C(=O)C2(COc3cc(F)c(Cl)cc32)c2ccccc21 (centres undefined) | 74 to 76
COCCN1CC(C(=O)O)N(S(=O)(=O)c2ccc(OC)cc2)Cc2ccccc21 (centres undefined) | 164 to 165
N#CNC(=Nc1ccncc1)NCCOc1ccc(Cl)cc1 | 174 to 177
CC(C)Oc1ccc2c(c1)Oc1ccccc1S2(=O)=O | 94 to 95
FC(F)(F)c1cccc2c1SSSSS2 | 55 to 60
CCCCNc1ccc(Nc2ccccc2)c2c1C(=O)c1ccccc1C2=O | 118 to 120
COc1ccc(-c2cc(CO)c(=O)n(CCCc3ccc(F)cc3)n2)cc1F | 130 to 133
CCCCCCc1c(F)cc(C2C=CC(CCCCC)=CC2)cc1F (centres undefined) | 35
